According to ChEMBL document CHEMBL4312021, “Discovery of [1,2,4]-triazolo [1,5-a]pyrimidine-7(4H)-one derivatives as positive modulators of GABAA1 receptor with potent anticonvulsant activity and low toxicity” (Eur J Med Chem, 2020):
Calls of active or inactive are those of the source. No cut-off for these calls is given here.

Columns and labels:
Mus musculus [1] = test: Anticonvulsant activity in ip dosed Kunming mouse assessed as reduction in ScPTZ-induced seizure administered before 30 mins of ScPTZ stimulation; assay type: functional; conditions: 0.5 h
[2] = molecular target: T1, GABA-A receptor; alpha-1/beta-2/gamma-2 (Homo sapiens, UniProt P14867+P18507+P47870); test: Positive allosteric modulation of recombinant human GABA receptor alpha1beta2gamma2 expressed in CHO cells at 30 uM in presence of GABA and measured for 120 secs by FMP dye based FLIPR assay (reference value: 0.25 +/- 0.03 uM); assay type: cell-based
T1 sequence (P14867 whole entry): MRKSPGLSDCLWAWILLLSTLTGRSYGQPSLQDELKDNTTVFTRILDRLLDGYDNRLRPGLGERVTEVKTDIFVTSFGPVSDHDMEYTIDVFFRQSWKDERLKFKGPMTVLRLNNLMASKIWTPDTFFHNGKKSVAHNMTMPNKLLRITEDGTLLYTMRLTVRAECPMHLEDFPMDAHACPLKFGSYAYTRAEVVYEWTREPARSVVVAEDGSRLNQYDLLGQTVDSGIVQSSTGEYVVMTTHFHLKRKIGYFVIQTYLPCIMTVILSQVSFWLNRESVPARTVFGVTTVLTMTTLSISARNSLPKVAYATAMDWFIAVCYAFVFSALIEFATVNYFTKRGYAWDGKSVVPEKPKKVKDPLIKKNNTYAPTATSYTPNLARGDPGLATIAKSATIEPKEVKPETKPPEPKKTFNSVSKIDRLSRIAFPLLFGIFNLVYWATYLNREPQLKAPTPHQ
T1 sequence (P47870 whole entry): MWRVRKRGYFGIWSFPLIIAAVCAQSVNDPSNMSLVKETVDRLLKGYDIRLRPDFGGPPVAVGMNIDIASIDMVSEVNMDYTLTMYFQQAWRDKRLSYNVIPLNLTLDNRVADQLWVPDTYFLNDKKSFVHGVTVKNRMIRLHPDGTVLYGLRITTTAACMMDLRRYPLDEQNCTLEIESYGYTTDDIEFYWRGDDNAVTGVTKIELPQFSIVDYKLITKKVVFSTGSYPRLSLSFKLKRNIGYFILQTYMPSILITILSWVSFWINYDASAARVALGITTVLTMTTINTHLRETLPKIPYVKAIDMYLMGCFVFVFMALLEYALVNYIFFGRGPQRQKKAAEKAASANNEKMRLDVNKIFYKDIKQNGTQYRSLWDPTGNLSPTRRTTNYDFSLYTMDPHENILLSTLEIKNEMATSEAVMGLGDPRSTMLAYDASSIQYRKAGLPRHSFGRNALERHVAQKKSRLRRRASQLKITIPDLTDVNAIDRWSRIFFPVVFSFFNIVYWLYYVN
T1 sequence (P18507 whole entry): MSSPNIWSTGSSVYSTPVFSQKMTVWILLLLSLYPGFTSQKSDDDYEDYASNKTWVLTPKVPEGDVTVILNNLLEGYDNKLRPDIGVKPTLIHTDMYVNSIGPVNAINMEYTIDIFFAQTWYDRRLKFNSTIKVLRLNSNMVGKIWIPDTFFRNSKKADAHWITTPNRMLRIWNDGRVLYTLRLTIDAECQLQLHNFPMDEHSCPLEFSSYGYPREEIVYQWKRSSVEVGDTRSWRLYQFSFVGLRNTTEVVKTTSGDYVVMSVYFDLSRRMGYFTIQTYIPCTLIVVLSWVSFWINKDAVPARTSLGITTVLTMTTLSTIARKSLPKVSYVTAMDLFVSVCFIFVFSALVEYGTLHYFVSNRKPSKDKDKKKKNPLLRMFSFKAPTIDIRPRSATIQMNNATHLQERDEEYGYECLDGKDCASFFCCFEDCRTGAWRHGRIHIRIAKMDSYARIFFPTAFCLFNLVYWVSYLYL

[3] = Neurotoxicity in ip dosed Kunming mouse assessed as reduction in equilibrium measured after 30 mins by rotarod test; assay type: toxicity, organism-based; conditions: in vivo
[4] = molecular target: T2, GABA-A receptor; alpha-1/beta-2/gamma-2 (Homo sapiens) (UniProt P14867+P47870+P18507); test: Activation of recombinant human GABA receptor alpha1beta2gamma2 expressed in CHO cells and measured for 120 secs by FMP dye based FLIPR assay; assay type: cell-based
Mus musculus [5] = test: Anticonvulsant activity in Kunming mouse assessed as reduction in ScPTZ-induced seizure at 30 mg/kg, ip administered before 30 mins of ScPTZ stimulation; assay type: functional, organism-based
Mus musculus [6] = species: Mus musculus; test: Inhibition of sodium channel in C57BL/6 mouse primary cortical neurons at 10 uM by manual patch clamp electrophysiology method
Mus musculus [7] = test: Anticonvulsant activity in Kunming mouse assessed as reduction in MES-induced seizure at 30 to 300 mg/kg, ip measured after 30 mins; assay type: functional, organism-based
Mus musculus [8] = species: Mus musculus; test: Inhibition of sodium channel in C57BL/6 mouse Primary cortical neurons at 100 uM by manual patch clamp electrophysiology method
Mus musculus [9] = test: Anticonvulsant activity in Kunming mouse assessed as reduction in ScPTZ-induced seizure at 300 mg/kg, ip administered before 30 mins of ScPTZ stimulation; assay type: functional, organism-based
Cortical neurone = test: Antiepileptic actvity in C57BL/6 mouse Primary cortical neuron assessed as reduction in 4-AP-induced excitability measured for 8 mins by Fluo-8/AM staining based FLIPR assay; assay type: functional, cell-based; conditions: C57BL/6, Cortical neurone
[10] = molecular target: T2, GABA-A receptor; alpha-1/beta-2/gamma-2 (Homo sapiens); test: (§1) Activation of recombinant human GABA receptor alpha1beta2gamma2 expressed in CHO cells in presence of GABA and measured for 120 secs by FMP dye based FLIPR assay; assay type: cell-based
[11] = molecular target: T1, GABA-A receptor; alpha-1/beta-2/gamma-2; test: as §1; assay type: cell-based
[12] = Protective index, ratio of TD50 for neurotoxicity in ip dosed Kunming mouse to ED50 for anticonvulsant activity in ip dosed Kunming mouse; assay type: toxicity, organism-based; conditions: in vivo, read-out: Ratio TD50/ED50
Mus musculus [13] = test: Anticonvulsant activity in Kunming mouse assessed as reduction in ScPTZ-induced seizure at 100 mg/kg, ip administered before 30 mins of ScPTZ stimulation; assay type: functional, organism-based

EC50 [2]: 240 nM
Activity [4]: inactive
inhibition (Mus musculus [6]): inactive
inhibition (Mus musculus [8]): Active
IC50 (Cortical neurone): 334 nM
Activity [10]: Dose-dependent effect
EC50 [11]: 12000 nM
Structure (SMILES): Cc1ccc(-c2nc3[nH]c(Cc4ccccc4)cc(=O)n3n2)cc1
ED50 (Mus musculus [1]): 41 mg/kg
TD50 at 0.5 h [3]: 372 mg/kg
Activity (Mus musculus [5]): Active
Activity (Mus musculus [7]): inactive
Activity (Mus musculus [9]): Active
selectivity ratio [12]: 9.09
Activity (Mus musculus [13]): Active
